# Patent publication US12195427B2, “MASP-2 inhibitors and methods of use” (priority 2018, dated 2025)
# Biological target: MASP-2 CCP2-SP (Homo sapiens (Human), UniProt O00187)
# Experiment: MASP-2 co-crystallization, X-ray crystallography and structure analysis (H-bonds, van der Waals contacts);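 as to Ligand-pharmacophore element distance, pharmacophore element C2: distance from averaged pharmacophore element to bound ligand; missing value means element absent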;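 as to Ligand-pharmacophore element distance, pharmacophore element C3: distance from averaged pharmacophore element to bound ligand; missing value means element absent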;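 as to Ligand-pharmacophore element distance, pharmacophore element C4: distance from averaged pharmacophore element to bound ligand; missing value means element absent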;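 as to Ligand-pharmacophore element distance, pharmacophore element C5: distance from averaged pharmacophore element to bound ligand; missing value means element absent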
# Design: van der Waals contact distance, MASP-2 HIS 483 atom CD2 / van der Waals contact distance, MASP-2 HIS 483 atom NE2 / van der Waals contact distance, SER 654 C to compound atom / van der Waals contact distance, SER 654 O to compound atom / van der Waals contact distance, TRP 655 C to compound atom / van der Waals contact distance, MASP-2 GLY 528 atom CA / van der Waals contact distance TRP 655 atom CZ3 / van der Waals contact distance TRP 655 atom N / van der Waals contact distance TRP 655 atom CE3 / van der Waals contact distance GLY 656 atom C / van der Waals contact distance GLY 656 atom CA / van der Waals contact distance GLY 656 atom O / van der Waals contact distance, MASP-2 TYR 607 atom CD1 / van der Waals contact distance, MASP-2 PRO 606 atom O / d(C3,CA1) / d(CA1,N1)2 / d(H4,O1) / d(H4,O2) / d(O1,O2) / d(CA1,O2) / d(CA6,O1) / d(CA6,O2) / d(CA1,C5) / d(O2,H3) / d(N2,C2) / d(CA5,N2) / d(N2,C4) / d(N2,C6) / d(N2,CA3) / d(N2,O3) / d(O4,H2): unit not given beside the values
# Procedure, shortened: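 E. coli-expressed CCP2-SP (±6His); apo crystals soaked 1–2× in inhibitor-containing crystallization solution; optional 20% glycerol cryoprotection, LN2 flash-cool; synchrotron data at 1.0 wavelength; MR using 1Q3X portions, partial refinement; single pose analysed when several seen.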
# [1] = Table A5-1 pharmacophore: distance between elements, S2/S1 region
# [2] = Table A5-2 pharmacophore distance, S3/S4 region
# [3] = Table A7-1, between pharmacophore elements of the bound compound
# [4] = Table A8-6, nearest protein atom in cell to the left
# MASP-2 CCP2-SP, sequence (O00187 445-686): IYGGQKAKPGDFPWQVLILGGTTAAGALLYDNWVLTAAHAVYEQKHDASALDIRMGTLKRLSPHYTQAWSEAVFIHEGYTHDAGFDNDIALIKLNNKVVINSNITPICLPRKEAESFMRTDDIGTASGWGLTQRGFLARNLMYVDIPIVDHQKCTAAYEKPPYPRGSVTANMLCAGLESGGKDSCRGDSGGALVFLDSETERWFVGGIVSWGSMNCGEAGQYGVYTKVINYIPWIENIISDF
# MASP-2 CCP2-SP, sequence (O00187 364-432 partner): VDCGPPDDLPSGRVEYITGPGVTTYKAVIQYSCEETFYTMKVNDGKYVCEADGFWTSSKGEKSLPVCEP
smiles,measurement,setting,value
C[C@H](NC(=O)[C@@H](CCc1ccccc1)NCc1ccc(N2CCOCC2)cc1)C(=O)NCc1ccc(C(=N)N)cc1 [compound 1149],H-bond distance to MASP-2 ASP 627 atom OD2,"Table A1 (H-Bonds), ASP 627 OD2",3.09
same,H-bond distance to MASP-2 CYS 660 atom SG,"Table A1 (H-Bonds), CYS 660 SG",3.16
same,H-bond distance to MASP-2 GLY 656 atom N,"Table A1 (H-Bonds), GLY 656 N",3.24
same,H-bond distance to MASP-2 SER 654 atom O,"Table A1 (H-Bonds), SER 654 O",2.7
same,H-bond distance to MASP-2 SER 657 atom O,"Table A1 (H-Bonds), SER 657 O",2.75
same,H-bond distance to MASP-2 SER 657 atom OG,"Table A1 (H-Bonds), SER 657 OG",3.19
same,"van der Waals contact distance, MASP-2 ASP 526 atom C",Table A2-1,3.29
same,"van der Waals contact distance, MASP-2 ASP 526 atom CA",Table A2-1,3.87
same,"van der Waals contact distance, MASP-2 HIS 483 atom CD2",Table A2-1,3.81
same,"van der Waals contact distance, MASP-2 GLY 528 atom N",Table A2-2,3.4
same,"van der Waals contact distance, MASP-2 PHE 529 atom CE1",Table A2-3,3.68
same,"van der Waals contact distance, SER 654 C to compound atom",Table A2-11,3.68
same,"Ligand-pharmacophore element distance, pharmacophore element C2","Table A4-1, element C2",0
same,"Ligand-pharmacophore element distance, pharmacophore element C3","Table A4-1, element C3",0
same,"Ligand-pharmacophore element distance, pharmacophore element C4","Table A4-1, element C4",3.8
same,"Ligand-pharmacophore element distance, pharmacophore element C5","Table A4-1, element C5",0
same,"Ligand-pharmacophore element distance, pharmacophore element C6","Table A4-1, element C6",0
same,"Ligand-pharmacophore element distance, pharmacophore element C7","Table A4-1, element C7",0
same,"Ligand-pharmacophore element distance, pharmacophore element CA1","Table A4-1, element CA1",0.35
same,"Ligand-pharmacophore element distance, pharmacophore element CA2","Table A4-1, element CA2",0
same,"Ligand-pharmacophore element distance, pharmacophore element CA3","Table A4-1, element CA3",0
same,"Ligand-pharmacophore element distance, pharmacophore element CA4","Table A4-1, element CA4",1.47
same,"Ligand-pharmacophore element distance, pharmacophore element CA5","Table A4-1, element CA5",0
same,"Ligand-pharmacophore element distance, pharmacophore element CA6","Table A4-1, element CA6",4.96
same,"d(CA1,N1)",[1],3.57
same,"d(CA1,O1)",[1],5.15
same,"d(CA1,O2)",[1],9.42
same,"d(CA6,O1)",[1],7.04
same,"d(CA6,O2)",[1],8.45
same,"d(H4,O1)",[1],5.59
same,"d(H4,O2)",[1],8.32
same,"d(O1,O2)",[1],8.70
same,"d(N2,C4)",[2],7.94
same,"d(O2,H3)",[2],5.29
same,"d(O2,N2)",[2],4.42
same,"a(CA1, O1, O2)",Table A6-1 pharmacophore angle,147.27
same,"a(O1, CA6, O2)",Table A6-1 pharmacophore angle,131.55
same,"a(O1, O2, H4)",Table A6-1 pharmacophore angle,105.44
same,"A(N1, CA1, O1) a)","Table A6-1 pharmacophore angle, all compounds with protonatable center N1 except Methyl-amino-pyridine",168.87
same,"a(O1, O2, H3)",Table A6-2 pharmacophore angle,54.88
same,"a(O1, O2, N2)",Table A6-2 pharmacophore angle,62.73
same,"a(O2, N2, C4)",Table A6-2 pharmacophore angle,154.82
same,"a(O2, N2, C4) 2",Table A6-2 pharmacophore angle,49.80
same,"Pharmacophore torsion angle a(CA6, O1, H4, O2)",[3],55.30
same,"Pharmacophore torsion angle a(H4, O1, O2, H3)",[3],105.58
same,"Pharmacophore torsion angle a(H4, O1, O2, N2)",[3],125.02
same,"Pharmacophore torsion angle a(N1, CA1, O2, H4)",[3],−109.82
same,"Pharmacophore torsion angle a(O1, H4, O2, CA1)",[3],−48.11
same,"Pharmacophore torsion angle a(O1, O2, N2, CA4)","Table A7-2, between pharmacophore elements of the bound compound",155.91
same,Pharmacophore protein distance to MET_658 (first MET_658 column),"Table A8-6, 6th residue column, nearest protein atom in cell to the left",2.55
same,Pharmacophore protein distance to MET_658 (second MET_658 column),"Table A8-6, 9th residue column, nearest protein atom in cell to the left",3.25
same,Pharmacophore protein distance to GLY_528,[4],3.92
same,Pharmacophore protein distance to PHE_529,[4],2.93
same,Pharmacophore protein distance to PRO_608,[4],4.39
same,Pharmacophore protein distance to SER_611,[4],2.96
same,Pharmacophore protein distance to TRP_655,"Table A8-6, pharmacophore elements C6, CA3, O3, H1, nearest protein atom in cell to the left",3.27
